According to US20250019357A1, “[…] MORPHIC FORMS AND MIXTURES FOR THE TREATMENT OF MENTAL DISORDERS OR MENTAL ENHANCEMENT” (TACTOGEN INC, priority 2021, published 2025):
Entries after “also recorded” stand apart in the source; their conditions may differ.

Legend:
SERT [1] = biological target: T1, SERT (Rattus norvegicus (Rat), UniProt P31652); experiment: In vitro rat synaptosome serotonin uptake inhibition assay (Examples 9, 58); format: biochemical; details: rat synaptosomes
Description: (§1) FIG. 7A is a graph showing results from an in vitro rat synaptosome serotonin uptake inhibition assay. […] Details and procedural information for this assay are described in Example 9. The x-axis is the log [dose] concentration measured in molar and the y-axis is the [^3H]-labeled 5-HT reuptake measured in percent.
as §1, with “176” for “7A”, “58.” for “9.”, “x-axis” for “x-axis is”, “concentration is” for “concentration”, “Molar units” for “molar”, “percent of maximum produced by the comparison releaser.” for “percent.”

SERT [2] = biological target: T1, SERT; experiment: In vitro rat synaptosome serotonin release (efflux) assay (Examples 9, 58); format: biochemical; details: rat synaptosomes
Description: as §1, with “7B” for “7A”, “release” for “uptake inhibition”, “release” for “reuptake”
as §1, with “177” for “7A”, “release” for “uptake inhibition”, “58.” for “9.”, “x-axis” for “x-axis is”, “release” for “reuptake”

NET = experiment: In vitro rat synaptosome norepinephrine release assay (Examples 9, 58); format: biochemical; details: rat synaptosomes
Description: (§2) FIG. 8C is a graph showing results from in vitro rat synaptosome dopamine and norepinephrine release assays. […] Previously presented serotonin results are included for comparison. […] Details and procedural information for this assay are described in Example 9. The x-axis is the log [dose] concentration measured in molar and the y-axis is the [^3H]-labeled 5-HT release measured in percent.
as §2, with “178” for “8C”, “58.” for “9.”, “x-axis” for “x-axis is”, “Molar units” for “molar”, “percent of maximum produced by the comparison releaser.” for “percent.”

[3] = biological target: human 5-HT transporter (hSERT) (Homo sapiens (Human), UniProt P31645); experiment: Human serotonin transporter  assay ([3H]imipramine radioligand, CHO cells); format: binding; details: 2 nM [3H]imipramine, CHO cells; read-out: SERT IC50
Experimental: EXAMPLE 8: Human Serotonin Transporter (SERT, SLC6A4) Functional Antagonist Uptake Assay
Benzofuran derivatives were evaluated for inhibiting the human 5-HT transporter (hSERT) as expressed in CHO cells using an antagonist radioligand assay (Tatsumi, M. et al. (1999), Eur. J. Pharmacol., 368: 277-283). […] Test compounds were assayed in three trials at […], and 0.94868 μM.
EXAMPLE 57: Human Serotonin Transporter (SERT, SLC6A4) Functional Antagonist Uptake Assay

5-HT2A receptor = 5-HT2A receptor (Homo sapiens (Human), UniProt P28223); experiment: 5-HT2A agonist activity (Example 6); format: cell-based
[4] = biological target: hTAAR1 (human trace amine-associated receptor) (Homo sapiens (Human), UniProt Q96RJ0); experiment: Interaction with hTAAR1; details: concentrations up to 60 μM
MDCKII cell line = experiment: In vitro absorption assay, MDCKII permeability; format: in vitro ADME; details: pH 7.4/7.4, 10 μM
Experimental: (§3) The permeability of 10 μM RS-5-MAPB in Caco-2, MDCKII, and MDR1-MDCKII cell line assays was assessed (Table 6). Both the AB and BA directions with and without the addition of a Pgp-specific inhibitor (verapamil), a MRP1 inhibitor (MK571), and an ATP-binding cassette subfamily G member 2 (ABCG2/BCRP) inhibitor (KG143) were measured. Trials were repeated twice, and values averaged.

MDR1-MDCKII cell line = experiment: In vitro absorption assay, MDR1-MDCKII permeability; format: in vitro ADME
Experimental: as §3

Caco-2 cell line = experiment: In vitro absorption assay, Caco-2 permeability; format: in vitro ADME
Experimental: as §3

[5] = Human self-reported effects of non-racemic 5-MAPB (Good, Bad, Open ratings); format: in vivo; details: one healthy human, 54 mg total 5-MAPB HCl oral in two halves 1 hour apart; session maximum averaged (N=2, 13% S N=1)
Experimental: The effects of non-racemic 5-MAPB HCl were tested by a healthy human individual at four different ratios of enantiomers plus the racemate as a control: • 54 mg S and 0 mg R (100% S) • 47 mg S and 7 mg R (about 87% S) • 36 mg S and 18 mg R (about 67% S) • 27 mg S and 27 mg R (about 50% S) • 7 mg S and 47 mg R (about 13% S)
Two trials were carried out at each ratio, except for 13% S where only one was conducted. Trials were at least 72 h apart.
5-MAPB HCl was dissolved in 1.5 ml distilled water and consumed in two halves, separated by 1 hour. Starting at 3 hours after administration, tablets of 250 mg ascorbic acid and capsules of 300 mg alpha lipoic acid were taken ad libitum (approximately every hour for a total of 4 administrations).
Measurements were made approximately every 2 hours until post 6 hours and the maximum ratings per session were analyzed. Additionally, an index of good drug effects versus emotional openness, calculated as (Open−Good)/(200, the theoretical maximum of Open+ Good), was constructed at each time point and the maximum analyzed. In healthy volunteers, Good Ratings can be considered a predictor of abuse liability. Accordingly, this index can be used as an indicator of the balance of a therapeutic effect (emotional openness) vs abuse liability.
Historic data of two trials 50 mg RS-5-MAPB Cl from the same individual were also included in the analysis for comparison.
Table 24 below indicates maximums for individual measures and for the open vs good index, averaged from all sessions (N=2, except for 13% S-5-MAPB where N=1). Qualitatively, all conditions produced subtle emotional effects, including decreases in negative affect and increases in stability of mood, without sensory distortion.

human DAT = human DAT (Homo sapiens (Human), UniProt Q01959); experiment: hDAT release assay in CHO cells ([3H]dopamine); details: read-out: EC50 DAT (Mean ± SEM), CHO cells expressing hDAT
human SERT = human SERT (Homo sapiens (Human), UniProt P31645); experiment: hSERT release assay in CHO cells ([3H]serotonin); details: read-out: EC50 SERT (Mean ± SEM), CHO cells expressing hSERT
[6] = Marble burying assay (Example 5); format: in vivo; details: individual enantiomers vs the racemic mixture
Description: FIG. 2 is a chart showing results from the marble burying assay to measure decreased anxiety and neuroticism resulting from treatment with S-5-MAPB, R/S-5-MAPB, and R-5-MAPB. […] The y-axis gives the compound and dose. Error bars indicate 95% confidence intervals. Details and procedural information for this assay are described in Example 5.

Swiss CD1 mice = experiment: Marble burying test; format: in vivo; details: enantiomers given simultaneously
DAT = DAT (Rattus norvegicus (Rat), UniProt P23977); experiment: In vitro rat synaptosome dopamine release assay (Examples 9, 58); format: biochemical; details: rat synaptosomes
Description: as §2
as §2, with “178” for “8C”, “58.” for “9.”, “x-axis” for “x-axis is”, “Molar units” for “molar”, “percent of maximum produced by the comparison releaser.” for “percent.”

[7] = biological target: dopamine transporter (DAT) (Rattus norvegicus (Rat), UniProt P23977); experiment: Rat synaptosome DAT release assay ([3H]MPP+); details: read-out: dopamine Emax (maximum dopamine increase relative to reference drug)
[8] = tested on: norepinephrine transporter (NET); experiment: Rat synaptosome NET release assay ([3H]MPP+); details: rat synaptosomes
[9] = Caco-2, pH 7.4/7.4 + KO143, 10 μM
[10] = Caco-2, pH 7.4/7.4 + verapamil, 10 μM

Structure (SMILES): CC[C@@H](Cc1ccc2occc2c1)NC [Pattern S-5-MBPB, S-5-MBPB]
- [3H]-labeled 5-HT reuptake (serotonin uptake inhibition) (SERT [1]): rapidly increases extracellular serotonin by inhibiting reuptake
- [3H]-labeled 5-HT release (SERT [2]): rapidly increases extracellular serotonin by stimulating release
- norepinephrine release (NET): rapidly increases extracellular norepinephrine by stimulating release
- IC50 [3]: < 0.95 µM

Structure (SMILES): CCC(Cc1ccc2ccoc2c1)NC (racemic) [Pattern 6-MBPB, 6-MBPB]
- [3H]-labeled 5-HT release (SERT [2]): 5-HT releaser
- norepinephrine release (NET): only partial releaser of norepinephrine
- 5-HT2A agonist activity (5-HT2A receptor): poor agonist of 5-HT2A
- interactions with hTAAR1 [4]: lacks interactions with hTAAR1

Structure (SMILES): CNC(C)Cc1ccc2occc2c1 (centres unmarked) [RS-5-MAPB]
- Permeability (Papp) A-B (MDCKII cell line): 82.1 10^−6 cm/s
- Permeability (Papp) B-A (MDCKII cell line): 19.8 10^−6 cm/s
- Permeability (Papp) A-B (MDR1-MDCKII cell line; pH 7.4/7.4 + verapamil, 10 μM): 42.8 10^−6 cm/s
- Permeability (Papp) B-A (MDR1-MDCKII cell line; pH 7.4/7.4 + verapamil, 10 μM): 30.4 10^−6 cm/s
- Permeability (Papp) A-B (MDR1-MDCKII cell line; pH 7.4/7.4, 10 μM): 68.7 10^−6 cm/s
- Permeability (Papp) B-A (MDR1-MDCKII cell line; pH 7.4/7.4, 10 μM): 20.5 10^−6 cm/s
- absorption (conclusion of the permeability assays) (Caco-2 cell line; Caco-2, MDCKII and MDR1-MDCKII assays taken together): well absorbed
- Permeability (Papp) A-B (Caco-2 cell line; [9]): 75.3 10^−6 cm/s
- Permeability (Papp) B-A (Caco-2 cell line; [9]): 14 10^−6 cm/s
- Permeability (Papp) A-B (Caco-2 cell line; [10]): 37.6 10^−6 cm/s
- Permeability (Papp) B-A (Caco-2 cell line; [10]): 23 10^−6 cm/s
- Permeability (Papp) A-B (Caco-2 cell line; Caco-2, pH 7.4/7.4, 10 μM): 81 10^−6 cm/s
- Permeability (Papp) B-A (Caco-2 cell line; Caco-2, pH 7.4/7.4, 10 μM): 29.1 10^−6 cm/s
- Bad (bad drug effects), maximum 0-100 rating [5]: 10%
- Good (good drug effects), maximum 0-100 rating [5]: 50%
- Open (emotional openness), maximum 0-100 rating [5]: 45%
- EC50 (human DAT): 0.459 ± 0.048 µM
- EC50 (human SERT): 0.09 ± 0.016 µM

Structure (SMILES): CNC(C)Cc1ccc2occc2c1 (centres unmarked) [Pattern 5-MAPB, 5-MAPB]
- anxiolytic effect, percent of marbles left unburied versus placebo [6]: non-additive effects of the two enantiomers
- marble burying: interaction between enantiomers (Swiss CD1 mice): strong non-additive interaction

Structure (SMILES): CC[C@H](Cc1ccc2occc2c1)NC [Pattern R-5-MBPB, R-5-MBPB]
- [3H]-labeled 5-HT reuptake (serotonin uptake inhibition) (SERT [1]): rapidly increases extracellular serotonin by inhibiting reuptake
- [3H]-labeled 5-HT release (SERT [2]): rapidly increases extracellular serotonin by stimulating release
- dopamine release / dopamine uptake (DAT): reuptake inhibitors of dopamine; also recorded: dopamine uptake inhibitors
- norepinephrine release (NET): partial releasers of norepinephrine; also recorded: rapidly increases extracellular norepinephrine by stimulating release
- IC50 [3]: < 0.95 µM
- Emax [7]: ~25%
- norepinephrine Emax [8]: 58%
